Data: patent publication US20260258003A1, “SLACK-ACTIVATING COMPOUNDS AND THEIR MEDICAL USE” (Johann Wolfgang Goethe-Universität Frankfurt am Main, priority 2023, published 2026)

Tested on: CFA-induced paw hypersensitivity of mice
Assay: CFA-induced inflammatory pain model
Assay type: in vivo
Conditions: 10 mg/kg i.p. 24 h after CFA; 0.5 h and 1 h after administration
Protocol: Animals: Experiments were performed in 8-16 week-old C57BL/6N mice (Charles River, Sulzfeld, Germany) of either sex. The animals were housed under a 12 h light/dark cycle with access to food and water ad libitum. All experiments adhered to the Animal Research: Reporting on In Vivo Experiments (ARRIVE) guidelines and were approved by and conducted in accordance with the regulations of the local Animal Welfare authorities (Regierungspräsidium Darmstadt, Germany; approval number V54-19c20/15-FR/2011). All behavioral studies were conducted during the light cycle of the day at room temperature (20-24° C.) by an observer blinded for the treatment of the animals and/or their genotype.
Behavioral assessment: Mechanical sensitivity of a hindpaw was assessed using a dynamic plantar aesthesiometer (Ugo Basile, Comerio, VA, Italy). Animals were placed on a wire mesh grid and habituated to the apparatus chamber for 1 h. […] The paw withdrawal latency was recorded automatically and calculated as the average of 6-8 measurements. […] Mechanical sensitivity was again determined 24 h after the CFA injection. Immediately thereafter, drug or vehicle (10% cyclodextrine in 0.9% NaCl) were intraperitoneally administered and the mechanical sensitivity was determined over 3 h. […]

O=C(O)COCCN1CCN(C2=Nc3ccccc3Oc3ccc(Cl)cc32)CC1 [Compound 6, 2-(2-(4-(2-Chlorodibenzo[b,f][1,4]oxazepin-11-yl)piperazin-1-yl)ethoxy) acetic acid]
paw withdrawal latencies compared to vehicle-treated animals: significantly increased
